Data published in patent publication US20210284621A1 (priority 2018, published 2021).
Like-named read-outs stand apart in the source and are kept apart here.

Columns and labels:
CB1 receptor [1] = target: T1, CB1 receptor (Homo sapiens, UniProt P21554); assay: cAMP Assay #2: Hit Hunter cAMP assay, Gi-coupled agonist activity, CB1; assay type: cell-based; parameters: host or cells: PathHunter cell lines
Experimental: (§1) Compounds of the invention were assayed in the Hit Hunter® cAMP assay to determine Gi-coupled agonist activity on the CB1 and CB2 receptors, the results of which are provided in Table 5.
(§2) The Hit Hunter® cAMP assay monitors the activation of a GPCR via Gi and […] secondary messenger signaling in a homogenous, non-imaging assay format using a technology developed by DiscoverX called Enzyme Fragment Complementation (EFC) with β-galactosidase (β-Gal) as the functional reporter. […] ED is fused to cAMP and in the assay competes with cAMP generated by cells for binding to a cAMP-specific antibody. Active β-Gal is formed by complementation of exogenous EA to any unbound ED cAMP. Active enzymes can then convert a chemiluminescent substrate, generating an output signal detectable on a standard microplate reader.
(§3) cAMP Hunter cell lines were expanded from freezer stocks according to standard procedures. Cells were seeded in a total volume of 20 μL into white walled, 384-well microplates and incubated at 37° C. for the appropriate time prior to testing. cAMP modulation was determined using the DiscoverX Hit Hunter cAMP XS+ assay. For Gi agonist activity determination, cells were incubated with sample in the presence of EC80 forskolin to induce response (20 μM and 25 μM in the CB1 and CB2 assays, respectively). Media was aspirated from cells and replaced with 15 μL 2:1 HBSS/10 mM HEPES:cAMP XS+Ab reagent.
(§4) Intermediate dilution of sample stocks was performed to generate 4× sample in assay buffer. 5 μL of 4× compound was added to cells and incubated at 37° C. or room temperature for 30 or 60 minutes. Final vehicle concentration was 1%. Assay signal was generated through incubation with 20 μL cAMP XS+ED/CL lysis cocktail for one hour at room temperature. Microplates were read following signal generation with a PerkinElmer Envision™ instrument for chemiluminescent signal detection. Compound activity was analyzed using CBIS data analysis suite (Chem Innovation, CA). For agonist assays, percentage activity was calculated using the following formula: % Activity=100%×(1−(mean RLU of test sample−mean RLU of Max control ligand)/(mean RLU of vehicle control−mean RLU of Max control ligand). Control ligand was the non-selective CB1/CB2 agonist CP55,940.

CB2 receptor [2] = target: T2, CB2 receptor (Homo sapiens, UniProt P34972); assay: cAMP Assay #2: Hit Hunter cAMP assay, Gi-coupled agonist activity, CB2; assay type: cell-based; parameters: host or cells: cAMP Hunter cell lines; conditions: for CB2 fold selectivity: CB1 EC50 / CB2 EC50
Experimental: as §1, §2, §3, §4

CB2 receptor [3] = target: T2, CB2 receptor; assay: CB2 competitive radioligand binding assay ([3H] WIN-55,212-2); parameters: expressed in transfected cells; host or cells: CHO-K1 cells; conditions: for inhibition at 0.05 µM: 0.05 μM compound, 2.4 nM [3H] WIN-55,212-2, 90 min 37° C.; for Fold Selectivity (CB1/CB2): Table 2, ratio of Ki CB1/CB2
Outline: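 Single-concentration displacement: 2.4 nM [3H]WIN-55,212-2 competed with 0.05 μM compound (1% DMSO) for 90 min at 37 °C on human CB2 expressed in CHO-K1 cells (HEPES 20 mM, pH 7.0, 0.5% BSA). Result given as % inhibition of bound radioligand.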

CB1 receptor [4] = target: T1, CB1 receptor; assay: CB1 competitive radioligand binding assay ([3H] SR141716A); parameters: expressed in transfected cells; host or cells: Chem-1 cells; conditions: for inhibition at 0.5 µM: 0.5 μM compound, 2.0 nM [3H] SR141716A, 90 min 37° C.
Outline: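 Chem-1 cells expressing human recombinant CB1 incubated 90 min at 37° C with 2.0 nM [3H]SR141716A and compound at 0.5 μM (1% DMSO) in HEPES pH 7.4 buffer with MgCl2, CaCl2, 0.2% BSA. Read-out is % inhibition of radioligand binding.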

CB1 receptor [5] = target: T1, CB1 receptor; assay: cell-based; parameters: host or cells: PathHunter cell lines
CB2 receptor [6] = target: T2, CB2 receptor; assay: cAMP Assay #1: CB2 adenylylcyclase assay in CHO cells; assay type: cell-based; parameters: expressed in transfected cells; host or cells: CHO cells
Experimental: (§5) Compounds of the invention were assayed in an adenylylcyclase assay to determine agonist activity on the CB1 and CB2 receptors, the results of which are provided in Table 4. Exemplary methods for the adenylylcyclase assay can be found in the literature, for example, in Rhee, M-H., et al. Cannabinol Derivatives: Binding to Cannabinoid Receptors and Inhibition of Adenylylcyclase. J Med Chem. 40: 3228-3233 (1997).
CB2 Activity as determined by Adenylylcyclase Assay: CB2 receptor agonist activity was measured by measuring cAMP production. A compound of the invention was incubated with CHO cells expressing human recombinant CB2 for 10 minutes at 37° C.
(§6) Determination of EC50 values: The EC50 values (concentration producing a half-maximal response) were determined by non-linear regression analysis of the concentration-response curves generated with mean replicate values using Hill equation curve fitting: Y=D+[(A−D)/(1+(C/C50)^nH)], where Y=response, A=left asymptote of the curve, D=right asymptote of the curve, C=compound concentration, and C50=EC50, and nH=slope factor. This analysis was performed using software developed at Cerep (Hill software) and validated by comparison with data generated by the commercial software SigmaPlot® 4.0 for Windows® (© 1997 by SPSS Inc.).

CB2 receptor [7] = target: T2, CB2 receptor; assay: cell-based; parameters: host or cells: cAMP Hunter cell lines; conditions: PathHunter agonist mode; read-out: CB2 Activity (β-Arrestin)
Outline: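 PathHunter β-Arrestin enzyme fragment complementation cells, EA-tagged β-Arrestin and PK-tagged receptor, exposed to compound for 90 to 180 minutes at 37° C. or room temperature, 1% vehicle. Chemiluminescence read 1 h after detection reagent; agonist % activity relative to vehicle and MAX control ligand.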

CB1 receptor [8] = target: T1, CB1 receptor; assay: cAMP Assay #1: CB1 adenylylcyclase assay in CHO cells; assay type: cell-based; parameters: expressed in transfected cells; host or cells: CHO cells
Experimental: as §5
CB1 Activity as determined by Adenylylcyclase Assay: CB1 receptor agonist activity was measured by measuring cAMP production. A compound of the invention was incubated with CHO cells expressing human recombinant CB1 for 20 minutes at 37° C.
as §6

[9] = PathHunter agonist mode, read-out: CB1 Activity (β-Arrestin)
[10] = Hit Hunter cAMP, 20 μM forskolin, control ligand CP55,940, read-out: CB1, EC50
[11] = Hit Hunter cAMP, 25 μM forskolin, control ligand CP55,940, read-out: CB2, EC50
[12] = Table 2, read-out: CB2 Binding Ki
[13] = Table 2, read-out: CB1 Binding Ki
[14] = CHO cells, 10 min 37° C., relative to 100 nM WIN 55212-2, read-out: CB2 Activity EC50 (cAMP)
[15] = CHO cells, 20 min 37° C., relative to 10 nM CP 55940, read-out: CB1 Activity EC50 (cAMP)

T2 sequence (P34972 whole entry): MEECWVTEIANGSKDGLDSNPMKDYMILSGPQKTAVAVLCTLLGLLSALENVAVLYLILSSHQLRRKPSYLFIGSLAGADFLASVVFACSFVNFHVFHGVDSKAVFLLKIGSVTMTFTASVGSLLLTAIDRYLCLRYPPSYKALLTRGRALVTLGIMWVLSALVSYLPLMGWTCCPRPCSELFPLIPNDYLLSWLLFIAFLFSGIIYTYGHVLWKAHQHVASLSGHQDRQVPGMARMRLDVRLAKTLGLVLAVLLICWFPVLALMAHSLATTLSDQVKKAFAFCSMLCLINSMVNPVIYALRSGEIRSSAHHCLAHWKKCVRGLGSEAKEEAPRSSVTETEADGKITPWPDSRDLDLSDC
T1 sequence (P21554 whole entry): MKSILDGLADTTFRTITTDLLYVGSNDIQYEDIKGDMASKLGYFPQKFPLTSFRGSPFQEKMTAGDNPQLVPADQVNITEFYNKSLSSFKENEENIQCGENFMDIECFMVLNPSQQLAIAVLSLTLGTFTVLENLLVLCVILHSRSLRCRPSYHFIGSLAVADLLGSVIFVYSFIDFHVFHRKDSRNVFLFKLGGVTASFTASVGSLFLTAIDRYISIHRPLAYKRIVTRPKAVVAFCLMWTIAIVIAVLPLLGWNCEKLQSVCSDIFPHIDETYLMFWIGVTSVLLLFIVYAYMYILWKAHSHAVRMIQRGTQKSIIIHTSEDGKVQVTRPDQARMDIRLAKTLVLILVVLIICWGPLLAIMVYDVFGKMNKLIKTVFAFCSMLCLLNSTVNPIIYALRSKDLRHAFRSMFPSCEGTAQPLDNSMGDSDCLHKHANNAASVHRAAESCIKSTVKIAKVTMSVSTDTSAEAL

CCCCCCC(C)(C)c1cc(O)c2c(c1)OC(C)(C)[C@@H]1CC=C(C(=O)NCCO)C[C@@H]21 [Compound 5, (6aR,10aR)-1-Hydroxy-N-(2-hydroxyethyl)-6,6-dimethyl-3-(2-methyloctan-2-yl)-6a,7,10,10a-tetrahydro-6H-benzo[c]chromene-9-carboxamide]
EC50 (CB1 receptor [1]): 32.2 nM
EC50 (CB2 receptor [2]): 3.9 nM
CB2 fold selectivity (CB2 receptor [2]; Hit Hunter cAMP): 8.2
Ki (CB2 receptor [3]): 28 nM
inhibition at 0.05 µM (CB2 receptor [3]): 57%
Fold Selectivity (CB1/CB2) (CB2 receptor [3]): 12.6
Ki (CB1 receptor [4]): 350 nM
inhibition at 0.5 µM (CB1 receptor [4]): 49%
EC50 (CB1 receptor [5]; [9]): 620 nM
EC50 (CB2 receptor [6]): 3.3 nM
EC50 (CB2 receptor [7]): 520 nM
EC50 (CB1 receptor [8]): < 3 nM

CCCCCCC(C)(C)c1cc(O)c2c(c1)OC(C)(C)[C@@H]1CC=C(C(=O)NC3CC3)C[C@@H]21 [Compound 6, (6aR,10aR)—N-Cyclopropyl-1-hydroxy-6,6-dimethyl-3-(2-methyloctan-2-yl)-6a,7,10,10a-tetrahydro-6H-benzo[c]chromene-9-carboxamide]
EC50 (CB1 receptor [1]): 4.7 nM
EC50 (CB2 receptor [2]): 0.8 nM
CB2 fold selectivity (CB2 receptor [2]; Hit Hunter cAMP): 6.0
Ki (CB2 receptor [3]): 3.9 nM
inhibition at 0.05 µM (CB2 receptor [3]): 98%
Fold Selectivity (CB1/CB2) (CB2 receptor [3]): 12
Ki (CB1 receptor [4]): 45 nM
inhibition at 0.5 µM (CB1 receptor [4]): 64%
EC50 (CB1 receptor [5]; [9]): 160 nM
EC50 (CB2 receptor [6]): < 3 nM
EC50 (CB2 receptor [7]): 210 nM
EC50 (CB1 receptor [8]): < 3 nM

CCCCCCC(C)(C)c1cc(O)c2c(c1)OC(C)(C)[C@@H]1CC=C(C(=O)NCCCO)C[C@@H]21 [Compound 13, (6aR,10aR)-1-Hydroxy-N-(3-hydroxypropyl)-6,6-dimethyl-3-(2-methyloctan-2-yl)-6a,7,10,10a-tetrahydro-6H-benzo[c]chromene-9-carboxamide]
EC50 (CB1 receptor [1]; [10]): 66.2 nM
EC50 (CB2 receptor [2]; [11]): 2.5 nM
CB2 fold selectivity (CB2 receptor [2]; Hit Hunter cAMP): 26.5
inhibition at 0.05 µM (CB2 receptor [3]): 68%
Fold Selectivity (CB1/CB2) (CB2 receptor [3]): 34
Ki (CB2 receptor [3]; [12]): 12.4 nM
inhibition at 0.5 µM (CB1 receptor [4]): 49%
Ki (CB1 receptor [4]; [13]): 420 nM
EC50 (CB1 receptor [5]; [9]): 787 nM
EC50 (CB2 receptor [6]; [14]): 3.1 nM
EC50 (CB2 receptor [7]): 807 nM
EC50 (CB1 receptor [8]; [15]): 4.6 nM

CCCCCCC(C)(C)c1cc(O)c2c(c1)OC(C)(C)[C@@H]1CC=C(C(=O)N[C@H](C)CCO)C[C@@H]21 [Compound 14, (6aR,10aR)-1-Hydroxy-N—((R)-4-hydroxybutan-2-yl)-6,6-dimethyl-3-(2-methyloctan-2-yl)-6a,7,10,10a-tetrahydro-6H-benzo[c]chromene-9-carboxamide]
EC50 (CB1 receptor [1]; [10]): 470 nM
EC50 (CB2 receptor [2]; [11]): 4.1 nM
CB2 fold selectivity (CB2 receptor [2]; Hit Hunter cAMP): 115.2
inhibition at 0.05 µM (CB2 receptor [3]): 47%
Fold Selectivity (CB1/CB2) (CB2 receptor [3]): 22
Ki (CB2 receptor [3]; [12]): 56 nM
inhibition at 0.5 µM (CB1 receptor [4]): 25%
Ki (CB1 receptor [4]; [13]): 1230 nM
EC50 (CB1 receptor [5]; [9]): > 3000 nM
EC50 (CB2 receptor [6]; [14]): 9.7 nM
EC50 (CB2 receptor [7]): 8 nM
EC50 (CB1 receptor [8]; [15]): 10 nM

CCCCCCC(C)(C)c1cc(O)c2c(c1)OC(C)(C)[C@@H]1CC=C(C(=O)NCC(O)CO)C[C@@H]21 (stereo partly drawn) [Compound 24, (6aR,10aR)-N-(2,3-Dihydroxypropyl)-1-hydroxy-6,6-dimethyl-3-(2-methyloctan-2-yl)-6a,7,10,10a-tetrahydro-6H-benzo[c]chromene-9-carboxamide]
EC50 (CB1 receptor [1]; [10]): 223 nM
EC50 (CB2 receptor [2]; [11]): 3.5 nM
CB2 fold selectivity (CB2 receptor [2]; Hit Hunter cAMP): 63.5
inhibition at 0.05 µM (CB2 receptor [3]): 60%
Fold Selectivity (CB1/CB2) (CB2 receptor [3]): 35
Ki (CB2 receptor [3]; [12]): 55 nM
inhibition at 0.5 µM (CB1 receptor [4]): 44%
Ki (CB1 receptor [4]; [13]): 1930 nM
EC50 (CB1 receptor [5]; [9]): > 3000 nM
EC50 (CB2 receptor [6]; [14]): 2.4 nM
EC50 (CB2 receptor [7]): 2 nM
EC50 (CB1 receptor [8]; [15]): 13 nM

CCCCCCC(C)(C)c1cc(O)c2c(c1)OC(C)(C)[C@@H]1CC=C(C(=O)OC)C[C@@H]21 [Compound 28, Methyl (6aR,10aR)-1-hydroxy-6,6-dimethyl-3-(2-methyloctan-2-yl)-6a,7,10,10a-tetrahydro-6H-benzo[c]chromene-9-carboxylate]
Ki (CB2 receptor [3]): 32 nM
inhibition at 0.05 µM (CB2 receptor [3]): 77%
Fold Selectivity (CB1/CB2) (CB2 receptor [3]): 22
Ki (CB1 receptor [4]): 699 nM
inhibition at 0.5 µM (CB1 receptor [4]): 74%
EC50 (CB1 receptor [5]): 654 nM
EC50 (CB2 receptor [6]): 59 nM
EC50 (CB2 receptor [7]): 1.7 nM
EC50 (CB1 receptor [8]): 8.2 nM

CCCCCCC(C)(C)c1cc(OC)c2c(c1)OC(C)(C)[C@@H]1CC=C(C(=O)O)C[C@@H]21 [Compound 34, (6aR,10aR)-1-methoxy-6,6-dimethyl-3-(2-methyloctan-2-yl)-6a,7,10,10a-tetrahydro-6H-benzo[c]chromene-9-carboxylic acid]
Ki (CB2 receptor [3]): > 3000 nM
Ki (CB1 receptor [4]): > 3000 nM
EC50 (CB1 receptor [5]): > 3000 nM
EC50 (CB2 receptor [6]): > 300 nM
EC50 (CB2 receptor [7]): > 3000 nM
EC50 (CB1 receptor [8]): > 300 nM

CC(C)(c1ccccc1)c1cc(O)c2c(c1)OC(C)(C)[C@@H]1CC=C(C(=O)O)C[C@@H]21 [Compound 35, (6aR,10aR)-1-Hydroxy-6,6-dimethyl-3-(2-phenylpropan-2-yl)-6a,7,10,10a-tetrahydro-6H-benzo[c]chromene-9-carboxylic acid]
Ki (CB2 receptor [3]): > 3000 nM
Ki (CB1 receptor [4]): > 3000 nM
EC50 (CB1 receptor [5]; [9]): > 3000 nM
EC50 (CB2 receptor [6]): > 300 nM
EC50 (CB2 receptor [7]): > 3000 nM
EC50 (CB1 receptor [8]): > 300 nM
